Consider two substances from US20120058499A1, “Bioluminescent Detection of Protease Activity” (priority 2010, published 2012).

The subject of test [1] is Otub2, JosD1, JosD2, AMSH, Ataxin3, Ataxin3-like, UCHL5, USP20, and USP14. As to the kind of experiment: Substrate comparison on panel of nine isopeptidases. Type of test: biochemical. As for the experimental part:
For Ub-AMC and Ub-Rhodamine110, all enzymes were diluted into 50 mM Tris, pH 8.0, 5 mM DTT, 0.05% CHAPS to a final concentration of 10 nM. […] Either Ub-AMC or Ub-Rhodamine110 (final reaction concentration equal to 250 nM) were diluted into 50 mM Tris, pH 8.0, 5 mM DTT, 0.05% (w/v) CHAPS. […] For Ub-Rhodamine110, fluorescence was monitored with filters corresponding to excitation at 485 nm and emission at 531 nm.

Another test addresses SENP2 (Homo sapiens, UniProt Q9HC62). The following applies: enzyme 200 pM; 30 minutes; FIG. 6. As for the experimental part: (§1) The hSUMO2-amino-luciferin substrate was compared to the Z-Arg-Leu-Arg-Gly-Gly (SEQ ID NO: 1)-amino-luciferin substrate (Promega DUB-Glo™ substrate) to determine the specificity and limit of detection of the activities of six (6) different isopeptidases (USP34, USP7, USP8, SENP1, SENP2, and SENP6). For all enzymes, these two substrates were tested in parallel using the DUB-Glo™ assay system (Promega) according to the manufacturer's instructions. All enzymes were diluted into 50 mM HEPES, pH 7.5, 10 mM DTT, 0.1% Prionex® (Sigma-Aldrich). For testing Z-Arg-Leu-Arg-Gly-Gly (SEQ ID NO: 1)-amino-luciferin, final isopeptidase concentrations for all enzymes were equal to approximately 70 pM to 50 nM. For testing hSUMO2-amino-luciferin, final isopeptidase concentrations for all enzymes were equal to approximately 70 pM to 50 nM. […] The signal in relative luminescence units (RLUs) was measured at 30 minutes from reaction assembly on an EnVision™ multi-label plate reader (Perkin Elmer). The signal to background ratio (S/B) was calculated as (maximum signal/(signal in absence of enzyme) plus or minus the corrected standard deviation of triplicate measurements.

For the next test, the target named is SENP6 (Homo sapiens, UniProt Q9GZR1). The following applies: enzyme 200 pM; 30 minutes; FIG. 6. As to the method:
as §1

SENP6, sequence (Q9GZR1 whole entry, species assumed): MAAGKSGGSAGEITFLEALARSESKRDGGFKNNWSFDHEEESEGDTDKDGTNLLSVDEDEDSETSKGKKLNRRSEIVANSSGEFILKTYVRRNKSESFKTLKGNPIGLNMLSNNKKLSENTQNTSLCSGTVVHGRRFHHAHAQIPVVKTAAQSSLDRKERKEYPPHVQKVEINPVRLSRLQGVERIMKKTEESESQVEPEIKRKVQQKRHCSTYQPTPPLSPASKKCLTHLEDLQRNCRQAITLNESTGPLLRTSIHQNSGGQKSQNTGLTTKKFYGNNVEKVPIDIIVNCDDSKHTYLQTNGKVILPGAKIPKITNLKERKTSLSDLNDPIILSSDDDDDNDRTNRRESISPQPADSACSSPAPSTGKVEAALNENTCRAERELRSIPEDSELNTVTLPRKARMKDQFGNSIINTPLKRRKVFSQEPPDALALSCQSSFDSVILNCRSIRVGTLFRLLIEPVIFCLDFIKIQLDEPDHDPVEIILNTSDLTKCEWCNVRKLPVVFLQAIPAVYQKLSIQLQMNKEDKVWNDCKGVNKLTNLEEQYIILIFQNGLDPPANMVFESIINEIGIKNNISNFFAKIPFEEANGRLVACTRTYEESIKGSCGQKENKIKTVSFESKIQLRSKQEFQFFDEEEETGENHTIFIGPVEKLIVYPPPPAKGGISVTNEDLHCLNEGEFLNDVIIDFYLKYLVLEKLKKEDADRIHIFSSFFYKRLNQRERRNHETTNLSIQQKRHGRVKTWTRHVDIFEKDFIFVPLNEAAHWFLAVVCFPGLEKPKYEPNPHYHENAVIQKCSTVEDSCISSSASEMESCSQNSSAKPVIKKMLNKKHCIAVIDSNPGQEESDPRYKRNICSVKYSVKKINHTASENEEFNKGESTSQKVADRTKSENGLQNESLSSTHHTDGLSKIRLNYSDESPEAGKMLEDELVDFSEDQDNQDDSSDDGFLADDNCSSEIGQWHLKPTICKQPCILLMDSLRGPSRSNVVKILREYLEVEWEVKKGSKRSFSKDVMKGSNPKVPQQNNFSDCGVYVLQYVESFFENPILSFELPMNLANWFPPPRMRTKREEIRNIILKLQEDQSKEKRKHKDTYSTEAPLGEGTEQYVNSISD
SENP2, sequence (Q9HC62 whole entry, species assumed): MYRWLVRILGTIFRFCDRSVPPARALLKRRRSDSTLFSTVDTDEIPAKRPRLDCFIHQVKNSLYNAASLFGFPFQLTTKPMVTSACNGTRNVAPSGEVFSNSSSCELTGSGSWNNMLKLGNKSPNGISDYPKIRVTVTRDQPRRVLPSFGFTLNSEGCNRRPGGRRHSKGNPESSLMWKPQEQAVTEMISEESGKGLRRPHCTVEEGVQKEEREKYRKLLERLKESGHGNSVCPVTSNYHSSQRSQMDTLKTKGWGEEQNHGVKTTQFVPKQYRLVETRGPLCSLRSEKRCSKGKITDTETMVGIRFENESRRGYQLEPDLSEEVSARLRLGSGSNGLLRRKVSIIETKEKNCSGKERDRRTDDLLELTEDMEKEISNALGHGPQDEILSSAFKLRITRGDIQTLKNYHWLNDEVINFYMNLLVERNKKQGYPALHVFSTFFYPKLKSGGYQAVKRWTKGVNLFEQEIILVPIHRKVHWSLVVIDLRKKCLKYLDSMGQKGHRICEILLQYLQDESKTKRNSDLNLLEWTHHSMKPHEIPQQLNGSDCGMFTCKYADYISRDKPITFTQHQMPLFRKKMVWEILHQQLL

In the case of Ub(1-76)-aminoluciferin [Ub-LUC], the “S/B towards Ub-amino-luciferin, fold higher than Ub-AMC / Ub-Rhodamine110” value in test [1] (equivalent molar concentrations, seven of nine DUBs (exceptions JosD2 and UCHL5)) is given as 10-1000 fold. Besides, the “fold greater S/B compared to Z-RLRGG-amino-luciferin (DUB-Glo reagent)” value in test [1] (range over panel of 9 isopeptidases, 10 nM) is on record as 10-1000 fold.

Take “Z-Arg-Leu-Arg-Gly-Gly (SEQ ID NO: 1)-amino-luciferin [DUB-glo ™]”: the “signal (RLU, S/B)” value on SENP2 and on SENP6 was “gave signals” in each case.
